In patent publication US6737383B1, “Herbicidal oxadiazolidines” (priority 1999, dated 2004):

Tests used:
pigweed = experiment: Test B pre/postemergence pigweed; assay type: in vivo, Amaranthus retroflexus
Procedure, shortened: (§1)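 Test chemicals in a non-phytotoxic solvent mixture with surfactant were sprayed preemergence onto planted seeds and postemergence onto plants 2 to 18 cm tall (1- to 4-leaf stage). After twelve to sixteen days in a greenhouse, injury was visually rated against untreated controls from 0 (no effect) to 10 (complete control).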

rape = experiment: Test B pre/postemergence rape; assay type: in vivo, Brassica napus
Procedure, shortened: as §1

soybean = experiment: Test B pre/postemergence soybean; assay type: in vivo, Glycine max
Procedure, shortened: as §1

sugar beet = experiment: Test B pre/postemergence sugar beet; assay type: in vivo, Beta vulgaris
Procedure, shortened: as §1

[1] = Preemergence, Rate 62 g/ha, scale of 0 to 10 where 0 is no effect and 10 is complete control
[2] = Preemergence, Rate 250 g/ha, scale of 0 to 10 where 0 is no effect and 10 is complete control
[3] = Preemergence, Rate 500 g/ha, scale of 0 to 10 where 0 is no effect and 10 is complete control
[4] = Rate 62 g/ha, Postemergence, scale 0 to 10, 0 no effect, 10 complete control
[5] = Rate 125 g/ha, Postemergence, scale of 0 to 10 where 0 is no effect and 10 is complete control
[6] = Rate 250 g/ha, Postemergence, scale of 0 to 10 where 0 is no effect and 10 is complete control
[7] = Rate 500 g/ha, Postemergence, scale 0 to 10, 0 no effect, 10 complete control
[8] = Postemergence, Rate 125 g/ha, scale 0 to 10, 0 is no effect, 10 is complete control
[9] = Postemergence, Rate 250 g/ha, scale 0 to 10, 0 is no effect, 10 is complete control
[10] = Postemergence, Rate 500 g/ha, scale of 0 to 10 where 0 is no effect and 10 is complete control
[11] = Preemergence, Rate 62 g/ha, scale 0 to 10 (0 no effect, 10 complete control)
[12] = Preemergence, Rate 125 g/ha, scale of 0 to 10 where 0 is no effect and 10 is complete control
[13] = Rate 62 g/ha, Postemergence, scale of 0 to 10 where 0 is no effect and 10 is complete control

## Cc1ccccc1-n1c(=O)on(C(=O)N(c2ccncc2)C(C)C)c1=O [Compound 301]
pigweed; [1]
  Redroot pigweed plant response rating: 0
pigweed; Preemergence, Rate 125 g/ha
  Redroot pigweed plant response rating (0 to 10 scale): 0
pigweed; [2]
  Redroot pigweed plant response rating: 0
pigweed; [3]
  Redroot pigweed plant response rating: 0
pigweed; [4]
  Redroot pigweed plant response rating: 0
pigweed; [5]
  Redroot pigweed plant response rating: 0
pigweed; [6]
  Plant response rating, Redroot pigweed: 0
rape; [1]
  Rape plant response rating: 0
rape; Preemergence, Rate 125 g/ha
  Rape plant response rating (0 to 10 scale): 0
rape; [2]
  Rape plant response rating: 0
rape; [3]
  Rape plant response rating: 0
rape; [4]
  Rape plant response rating: 0
rape; [5]
  Rape plant response rating: 0
rape; [6]
  Plant response rating, Rape: 0
soybean; [1]
  Soybean plant response rating: 0
soybean; Preemergence, Rate 125 g/ha
  Soybean plant response rating (0 to 10 scale): 0
soybean; [2]
  Soybean plant response rating: 0
soybean; [3]
  Soybean plant response rating: 0
soybean; [4]
  Soybean plant response rating: 0
soybean; [5]
  Soybean plant response rating: 0
soybean; [6]
  Plant response rating, Soybean: 0
Sugar beet; [1]
  Sugarbeets plant response rating: 0
Sugar beet; Preemergence, Rate 125 g/ha
  Sugarbeets plant response rating (0 to 10 scale): 0
Sugar beet; [2]
  Sugarbeets plant response rating: 0
Sugar beet; [3]
  Sugarbeets plant response rating: 0
Sugar beet; [4]
  Sugarbeets plant response rating: 0
Sugar beet; [5]
  Sugarbeets plant response rating: 0
Sugar beet; [6]
  Plant response rating, Sugarbeets: 0

## Cc1ccccc1-n1c(=O)on(C(=O)N(c2ccc3ccccc3c2)C(C)C)c1=O [Compound 306]
pigweed; [1]
  Redroot pigweed plant response rating: 0
pigweed; Preemergence, Rate 125 g/ha
  Redroot pigweed plant response rating (0 to 10 scale): 0
pigweed; [2]
  Redroot pigweed plant response rating: 0
pigweed; [3]
  Redroot pigweed plant response rating: 0
pigweed; [4]
  Redroot pigweed plant response rating: 0
pigweed; [5]
  Redroot pigweed plant response rating: 0
pigweed; [6]
  Plant response rating, Redroot pigweed: 0
rape; [1]
  Rape plant response rating: 0
rape; Preemergence, Rate 125 g/ha
  Rape plant response rating (0 to 10 scale): 0
rape; [2]
  Rape plant response rating: 0
rape; [3]
  Rape plant response rating: 0
rape; [4]
  Rape plant response rating: 0
rape; [5]
  Rape plant response rating: 0
rape; [6]
  Plant response rating, Rape: 0
soybean; [1]
  Soybean plant response rating: 0
soybean; Preemergence, Rate 125 g/ha
  Soybean plant response rating (0 to 10 scale): 0
soybean; [2]
  Soybean plant response rating: 0
soybean; [3]
  Soybean plant response rating: 0
soybean; [4]
  Soybean plant response rating: 1
soybean; [5]
  Soybean plant response rating: 2
soybean; [6]
  Plant response rating, Soybean: 2
Sugar beet; [1]
  Sugarbeets plant response rating: 0
Sugar beet; Preemergence, Rate 125 g/ha
  Sugarbeets plant response rating (0 to 10 scale): 0
Sugar beet; [2]
  Sugarbeets plant response rating: 0
Sugar beet; [3]
  Sugarbeets plant response rating: 0
Sugar beet; [4]
  Sugarbeets plant response rating: 0
Sugar beet; [5]
  Sugarbeets plant response rating: 0
Sugar beet; [6]
  Plant response rating, Sugarbeets: 0

## CC(C)N(C(=O)n1oc(=O)n(CC2CCCC2)c1=O)c1ccc(F)cc1 [Compound 322]
pigweed; [1]
  Redroot pigweed plant response rating: 0
pigweed; Preemergence, Rate 125 g/ha
  Redroot pigweed plant response rating (0 to 10 scale): 6
pigweed; [2]
  Redroot pigweed plant response rating: 8
pigweed; [3]
  Redroot pigweed plant response rating: 8
pigweed; [4]
  Redroot pigweed plant response rating: 2
pigweed; [5]
  Redroot pigweed plant response rating: 3
pigweed; [6]
  Plant response rating, Redroot pigweed: 3
pigweed; [7]
  Plant response rating, Redroot pigweed: 6
rape; [1]
  Rape plant response rating: 0
rape; Preemergence, Rate 125 g/ha
  Rape plant response rating (0 to 10 scale): 0
rape; [2]
  Rape plant response rating: 0
rape; [3]
  Rape plant response rating: 2
rape; [4]
  Rape plant response rating: 0
rape; [5]
  Rape plant response rating: 0
rape; [6]
  Plant response rating, Rape: 0
rape; [7]
  Plant response rating, Rape: 0
soybean; [1]
  Soybean plant response rating: 0
soybean; Preemergence, Rate 125 g/ha
  Soybean plant response rating (0 to 10 scale): 0
soybean; [2]
  Soybean plant response rating: 0
soybean; [3]
  Soybean plant response rating: 0
soybean; [4]
  Soybean plant response rating: 1
soybean; [5]
  Soybean plant response rating: 3
soybean; [6]
  Plant response rating, Soybean: 4
soybean; [7]
  Plant response rating, Soybean: 5
Sugar beet; [1]
  Sugarbeets plant response rating: 0
Sugar beet; Preemergence, Rate 125 g/ha
  Sugarbeets plant response rating (0 to 10 scale): 2
Sugar beet; [2]
  Sugarbeets plant response rating: 2
Sugar beet; [3]
  Sugarbeets plant response rating: 4
Sugar beet; [4]
  Sugarbeets plant response rating: 0
Sugar beet; [5]
  Sugarbeets plant response rating: 0
Sugar beet; [6]
  Plant response rating, Sugarbeets: 0
Sugar beet; [7]
  Plant response rating, Sugarbeets: 2

## CC(C)N(C(=O)n1oc(=O)n(-c2ccc3ccccc3c2)c1=O)c1ccccc1 [Compound 332]
pigweed; [8]
  Plant response rating, Redroot pigweed: 1
pigweed; [1]
  Redroot pigweed plant response rating: 0
pigweed; Preemergence, Rate 125 g/ha
  Redroot pigweed plant response rating (0 to 10 scale): 0
pigweed; [2]
  Redroot pigweed plant response rating: 0
pigweed; [3]
  Redroot pigweed plant response rating: 3
pigweed; [4]
  Redroot pigweed plant response rating: 0
pigweed; [7]
  Plant response rating, Redroot pigweed: 4
rape; [8]
  Plant response rating, Rape: 0
rape; [1]
  Rape plant response rating: 0
rape; Preemergence, Rate 125 g/ha
  Rape plant response rating (0 to 10 scale): 0
rape; [2]
  Rape plant response rating: 0
rape; [3]
  Rape plant response rating: 0
rape; [4]
  Rape plant response rating: 0
rape; [7]
  Plant response rating, Rape: 0
soybean; [8]
  Plant response rating, Soybean: 2
soybean; [1]
  Soybean plant response rating: 0
soybean; Preemergence, Rate 125 g/ha
  Soybean plant response rating (0 to 10 scale): 0
soybean; [2]
  Soybean plant response rating: 0
soybean; [3]
  Soybean plant response rating: 0
soybean; [4]
  Soybean plant response rating: 2
soybean; [7]
  Plant response rating, Soybean: 3
Sugar beet; [8]
  Plant response rating, Sugarbeets: 0
Sugar beet; [1]
  Sugarbeets plant response rating: 0
Sugar beet; Preemergence, Rate 125 g/ha
  Sugarbeets plant response rating (0 to 10 scale): 0
Sugar beet; [2]
  Sugarbeets plant response rating: 0
Sugar beet; [3]
  Sugarbeets plant response rating: 0
Sugar beet; [4]
  Sugarbeets plant response rating: 0
Sugar beet; [7]
  Plant response rating, Sugarbeets: 0

## CC(C)N(C(=O)n1oc(=O)[nH]c1=O)c1ccc(F)cc1F [Compound 391]
pigweed; [9]
  Plant response rating, Redroot pigweed: 0
pigweed; [10]
  Redroot pigweed plant response rating: 0
pigweed; [11]
  Plant response rating, Redroot pigweed: 0
pigweed; [12]
  Plant response rating, Redroot pigweed: 0
pigweed; [2]
  Redroot pigweed plant response rating: 0
pigweed; [3]
  Redroot pigweed plant response rating: 0
pigweed; [13]
  Redroot pigweed plant response rating: 0
rape; [9]
  Plant response rating, Rape: 0
rape; [10]
  Rape plant response rating: 0
rape; [11]
  Plant response rating, Rape: 0
rape; [12]
  Plant response rating, Rape: 0
rape; [2]
  Rape plant response rating: 0
rape; [3]
  Rape plant response rating: 0
rape; [13]
  Rape plant response rating: 0
soybean; [9]
  Plant response rating, Soybean: 0
soybean; [10]
  Soybean plant response rating: 0
soybean; [11]
  Plant response rating, Soybean: 0
soybean; [12]
  Plant response rating, Soybean: 0
soybean; [2]
  Soybean plant response rating: 0
soybean; [3]
  Soybean plant response rating: 0
soybean; [13]
  Soybean plant response rating: 0
Sugar beet; [9]
  Plant response rating, Sugarbeets: 0
Sugar beet; [10]
  Sugarbeets plant response rating: 0
Sugar beet; [11]
  Plant response rating, Sugarbeets: 0
Sugar beet; [12]
  Plant response rating, Sugarbeets: 0
Sugar beet; [2]
  Sugarbeets plant response rating: 0
Sugar beet; [3]
  Sugarbeets plant response rating: 0
Sugar beet; [13]
  Sugarbeets plant response rating: 0
